Test results taken from PubChem BioAssay (NCI).
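GI50 marks 50% less growth. At the TGI there is no net growth.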

Key:
Assay in all cases: inhibition of tumour cell growth, NCI panel, 384-well format
A549 NSCLC = tested on: A549 NSCLC
HL-60(TB) leukemia = tested on: HL-60(TB) leukemia
M14 melanoma = tested on: M14 melanoma
MDA-MB-231 breast = tested on: MDA-MB-231 breast
MDA-MB-468 breast = tested on: MDA-MB-468 breast
MOLT-4 leukemia = tested on: MOLT-4 leukemia
NCI-H226 lung = tested on: NCI-H226 lung
NCI-H23 lung = tested on: NCI-H23 lung
OVCAR-4 ovarian = tested on: OVCAR-4 ovarian
PC-3 prostate = tested on: PC-3 prostate
SK-MEL-28 melanoma = tested on: SK-MEL-28 melanoma
SN12C renal = tested on: SN12C renal
SR leukemia = tested on: SR leukemia

Row | Compound | GI50 (A549 NSCLC) [nM] | TGI (A549 NSCLC) [nM] | GI50 (HL-60(TB) leukemia) [nM] | TGI (HL-60(TB) leukemia) [nM] | GI50 (M14 melanoma) [nM] | TGI (M14 melanoma) [nM] | GI50 (MDA-MB-231 breast) [nM] | TGI (MDA-MB-231 breast) [nM] | GI50 (MDA-MB-468 breast) [nM] | TGI (MDA-MB-468 breast) [nM] | GI50 (MOLT-4 leukemia) [nM] | TGI (MOLT-4 leukemia) [nM] | GI50 (NCI-H226 lung) [nM] | TGI (NCI-H226 lung) [nM] | GI50 (NCI-H23 lung) [nM] | TGI (NCI-H23 lung) [nM] | GI50 (OVCAR-4 ovarian) [nM] | TGI (OVCAR-4 ovarian) [nM] | GI50 (PC-3 prostate) [nM] | TGI (PC-3 prostate) [nM] | other results
1 | CN1CCN(c2ccc(-c3cccc(CN4CCOCC4)c3)cc2NC(=O)c2c[nH]c(=O)cc2C(F)(F)F)CC1 | 14400 | > 100000 | 8870 | 20100 | 16000 | 29800 | 25600 | > 94000 | 12000 | 28900 | 5860 | 11500 | 52500 | > 100000 | 17300 | > 86100 | 50400 | > 100000 | 27000 | > 94600 | GI50 (SK-MEL-28 melanoma): 17000 nM; TGI (SK-MEL-28 melanoma): 31000 nM; GI50 (SN12C renal): > 62100 nM; TGI (SN12C renal): > 100000 nM; GI50 (SR leukemia): 12200 nM; TGI (SR leukemia): 24800 nM
2 | c1ccc2c(NCCCN3CCN(CCCNc4c5ccccc5nc5ccccc45)CC3)c3ccccc3nc2c1 | 445 | 1930 | 108 | 243 | 1320 | 2630 | 506 | 2060 | 305 | 670 | 23.2 | 50.9 | 161 | 1190 | 327 | 1340 | 446 | 1220 | 1390 | 3750 | GI50 (SK-MEL-28 melanoma): 1820 nM; TGI (SK-MEL-28 melanoma): 3240 nM; GI50 (SN12C renal): 81.6 nM; TGI (SN12C renal): 348 nM; GI50 (SR leukemia): 155 nM; TGI (SR leukemia): 328 nM
